{
  "source": "patent US8497277B2",
  "about": "“Inhibitors of Bruton's tyrosine kinase” (Pharmacyclics, Inc., priority 2006, dated 2013)",
  "key": {"[1]": {"biological_target": "Btk (Homo sapiens (Human), UniProt Q06187)", "sequence (Q06187 whole entry)": "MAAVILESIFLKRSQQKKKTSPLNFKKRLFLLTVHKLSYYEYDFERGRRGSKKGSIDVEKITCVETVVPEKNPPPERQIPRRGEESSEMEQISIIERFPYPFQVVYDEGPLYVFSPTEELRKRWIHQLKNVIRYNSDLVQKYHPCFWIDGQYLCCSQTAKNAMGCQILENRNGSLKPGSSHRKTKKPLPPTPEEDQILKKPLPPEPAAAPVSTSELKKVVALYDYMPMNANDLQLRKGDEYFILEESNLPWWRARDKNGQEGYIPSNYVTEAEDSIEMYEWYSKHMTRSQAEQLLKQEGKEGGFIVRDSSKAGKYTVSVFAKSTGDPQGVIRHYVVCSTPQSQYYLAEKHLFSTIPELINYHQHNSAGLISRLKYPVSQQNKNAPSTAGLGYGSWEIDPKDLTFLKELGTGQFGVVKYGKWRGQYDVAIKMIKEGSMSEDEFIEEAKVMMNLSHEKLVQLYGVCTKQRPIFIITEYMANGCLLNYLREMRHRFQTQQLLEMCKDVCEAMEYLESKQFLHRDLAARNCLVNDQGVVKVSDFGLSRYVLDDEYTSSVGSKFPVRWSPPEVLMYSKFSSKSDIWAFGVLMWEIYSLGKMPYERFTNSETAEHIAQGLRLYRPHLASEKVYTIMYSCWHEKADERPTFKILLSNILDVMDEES", "assay": "Btk acellular kinase assay (TR-FRET)", "conditions": "Btk IC50 relative to compound 4"}, "[2]": {"assay": "in vivo", "conditions": "female, Balb/c, mouse, plasma, po"}, "[3]": {"tested_on": "DHL-6 cells", "assay": "DHL-6 cell growth (Alamar Blue assay)", "format": "cell-based", "conditions": "3E4 DHL-6 cells/well in complete media, 0.1% DMSO"}},
  "data": [
    {"smiles": "C/C=C/C(=O)N1CCCC(n2nc(-c3ccc(Oc4ccccc4)cc3)c3c(N)ncnc32)C1", "note": "(stereo not drawn) [Compound 5, (E)-1-(3-(4-amino-3-(4-phenoxyphenyl)-1H-pyrazolo[3,4-d]pyrimidin-1-yl)piperidin-1-yl)but-2-en-1-one]", "values": [
      {"measurement": "fold less potent than 4", "setting": "[1]", "value": 28, "unit": "fold"}
    ]},
    {"smiles": "C=CC(=O)N1CCCC(n2nc(-c3ccc(Oc4ccccc4)cc3)c3c(N)ncnc32)C1", "note": "(stereo not drawn) [Compound 4, 1-(3-(4-amino-3-(4-phenoxyphenyl)-1H-pyrazolo[3,4-d]pyrimidin-1-yl)piperidin-1-yl)prop-2-en-1-one]", "values": [
      {"measurement": "Tmax", "setting": "[2]", "value": 2, "unit": "h"}
    ]},
    {"smiles": "CN(C)C/C=C/C(=O)N1CCCC(n2nc(-c3ccc(Oc4ccccc4)cc3)c3c(N)ncnc32)C1", "note": "(stereo not drawn) [Compound 15, (E)-1-(3-(4-amino-3-(4-phenoxyphenyl)-1H-pyrazolo[3,4-d]pyrimidin-1-yl)piperidin-1-yl)-4-(dimethylamino)but-2-en-1-one]", "values": [
      {"measurement": "growth of DHL-6 cells", "setting": "[3]", "value": "inhibit growth"}
    ]}
  ]
}
